Data from patent publication US6887827B2, “Combinations of herbicidal aromatic carboxylic acids and safeners” (Bayer CropScience GmbH, priority 2002, dated 2005).

Test system: Triticum aestivum (wheat)
Assay: Post-emergence crop plant selectivity field trial: visually scored damage to wheat
Assay type: in vivo
Details: wheat at 3-tiller growth stage, 39 days after treatment, average of three trials
Protocol: 1. Post-Emergence Effect on Weeds and Crop Plant Selectivity (Field Trials) Crop plants were grown outdoors on plots under natural outdoor conditions, and seeds or rhizome pieces of typical harmful plants were laid out or the natural weed growth was utilized. Treatment with the compositions according to the invention was carried out after the harmful plants had emerged and the crop plants were at the growth stage stated below. After the application, the effect of the composition was scored visually by comparison with untreated controls.

SMILES | Phytotox (%) on TRZAS (50 g ai/ha) [%] | Phytotox (%) on TRZAS (120 g ai/ha) [%] | Phytotox (%) on TRZAS (140 g ai/ha) [%] | Phytotox (%) on TRZAS (210 g ai/ha) [%] | Phytotox (%) on TRZAS (280 g ai/ha) [%]
CCOC(=O)C1=NN(c2ccc(Cl)cc2Cl)C(C)(C(=O)OCC)C1 (centres unmarked) [(B1.1.1), ethyl 1-(2,4-dichlorophenyl)-5-(ethoxycarbonyl)-5-methyl-2-pyrazoline-3-carboxylate] | 0 | 0 | – | – | –
COc1c(Cl)ccc(Cl)c1C(=O)O [(A1), 3,6-dichloro-2-methoxybenzoic acid] | – | – | 27 | 25 | 27
